Measurements from patent US8318779B2, “Lysine related derivatives as HIV aspartyl protease inhibitors” (priority 2006, dated 2012).
Where two headings read alike, the source gives them in different places.

What was measured:
[1] = tested on: wild type laboratory HIV strain (WT IIIB-2-001); experiment: Cellular anti-viral assay in HIV-infected MT4-LTR-EGFP cells (GFP reporter), wild type strain; type: cell-based
Description: The compound having structural formula (III) was tested in a cellular assay using the MT4-LTR-EGFP cells for anti-viral activity.
(§1) The cellular assay was performed according to the following procedure.
(§2) HIV- or mock-infected MT4-LTR-EGFP cells were incubated for three days in the presence of various concentrations of the compound according to the invention. As reference compounds APV, IDV, RTV, NFV, TPV and LPV were used. Upon infection, the viral tat protein activates the GFP reporter. At the end of the incubation period, the GFP signal was measured. In the virus control samples (in the absence of any inhibitor) the maximal fluorescent signal was obtained. The inhibitory activity of the compounds were monitored on the virus-infected cells and were expressed as EC50. These values represent the amount of the compound required to protect 50% of the cells from virus infection.

[2] = tested on: clinically isolated HIV strain r13363 harboring several mutations; experiment: Cellular anti-viral assay in HIV-infected MT4-LTR-EGFP cells (GFP reporter), clinically isolated mutant strain; type: cell-based
Description: Because of the increasing emergence of drug resistant HIV strains, the present compound was also tested for its potency against a clinically isolated HIV strain harboring several mutations. These mutations are associated with resistance to protease inhibitors and result in viruses that show various degrees of phenotypic cross-resistance to the currently commercially available drugs such as for instance saquinavir, ritonavir, nelfinavir, indinavir and amprenavir. The viral strain tested R13363 contains mutations as indicated below.
as §1, §2

[3] = Human immunodeficiency virus 1, IIIB, read-out: HIV-AVE-MT4LTREGFP-IIIB pEC50 (converted)
[4] = Human immunodeficiency virus 1, read-out: HIV-AVE-MT4LTREGFP-r13363 pEC50 (converted)

CC(C)CN(C[C@@H](O)[C@H](Cc1ccccc1)NC(=O)O[C@H]1CCOC1)S(=O)(=O)c1ccc(N)cc1 [APV, amprenavir]
EC50 [1, 3]: 50.1 nM | EC50 [2, 4]: 10000 nM

CC(C)c1nc(CN(C)C(=O)N[C@H](C(=O)N[C@@H](Cc2ccccc2)C[C@H](O)[C@H](Cc2ccccc2)NC(=O)OCc2cncs2)C(C)C)cs1 [RTV, ritonavir]
EC50 [1, 3]: 63.1 nM | EC50 [2, 4]: 10000 nM

Cc1c(O)cccc1C(=O)N[C@@H](CSc1ccccc1)[C@H](O)CN1C[C@H]2CCCC[C@H]2C[C@H]1C(=O)NC(C)(C)C [NFV, nelfinavir]
EC50 [1, 3]: 63.1 nM | EC50 [2, 4]: 1580 nM

CC(C)(C)NC(=O)[C@@H]1CN(Cc2cccnc2)CCN1C[C@@H](O)C[C@@H](Cc1ccccc1)C(=O)N[C@H]1c2ccccc2C[C@H]1O [IDV, indinavir]
EC50 [1, 3]: 39.8 nM | EC50 [2, 4]: 398 nM

COC(=O)N[C@H](C(=O)NCCCC[C@@H](CO)N(CC(C)C)S(=O)(=O)c1ccc(CN)cc1)C(c1ccccc1)c1ccccc1 [formula (III), (S)—(S)-(1-{5-[(4-Aminomethyl-benzenesulfonyl)-isobutyl-amino]-6-hydroxy-hexylcarbamoyl}-2,2-diphenyl-ethyl)-carbamic acid methyl ester]
EC50 ([1]; Human immunodeficiency virus 1, 72 h, wild type (IIIB), MT4-LTR-EGFP cells, three days incubation, read-out: pEC50—IIIB (converted)): 31.6 nM | anti-HIV activity against wild type laboratory HIV strain ([1]; MT4-LTR-EGFP cells, WT IIIB-2-001): potent anti-HIV activity | EC50 ([2]; Human immunodeficiency virus 1, 72 h, read-out: pEC50-r13363 (converted)): 31.6 nM

CCC[C@@]1(CCc2ccccc2)CC(O)=C([C@H](CC)c2cccc(NS(=O)(=O)c3ccc(C(F)(F)F)cn3)c2)C(=O)O1 [TPV]
HIV-AVE-MT4LTREGFP-IIIB pEC50 ([1]; reference compounds, wild type (IIIB), MT4-LTR-EGFP cells): 6.3 = | HIV-AVE-MT4LTREGFP-r13363 pEC50 ([2]; reference compounds, clinically isolated HIV strain r13363, MT4-LTR-EGFP cells): 6.3

Cc1cccc(C)c1OCC(=O)N[C@@H](Cc1ccccc1)[C@@H](O)C[C@H](Cc1ccccc1)NC(=O)[C@H](C(C)C)N1CCCNC1=O [LPV, lopinavir]
EC50 [1, 3]: 12.6 nM | EC50 [2, 4]: 631 nM
